Where a SMILES comes first, the peptide text is derived from it. The star is where a group is joined. βNA = c1ccc2cc(N*)ccc2c1; Cbz = O=C(OCc1ccccc1)*
What was measured:
[1] = tested on: Bacteroides gingivalis; assay: Hydrolytic activity of oral anaerobe cell suspension on aminopeptidase substrates (Experiment 1); type: cell-based; conditions: five strains, substrate 0.2 mM, pH 7.0, 37° C., 60 minutes, Table 1
Procedure: (§1) Oral anaerobes, i.e., four strains of Treponema denticola, five strains of B. gingivalis, four strains of Actinobacillus actinomycetemcomitans, four strains of Capnocytophaga sp. and three strains of Fusobacterium nucleatum were tested for hydrolytic activity to the substrate of aminopeptidase enzyme as follows.
(§2) The strains of Treponema were anaerobically cultivated using TYGVS media at 37° C. for 7 days, while other bacterial strains were cultivated using brain heart infusion broth at 37° C. for 48 to 72 hours. Each culture was diluted to obtain a bacterial cell suspension, the absorption at 660 nm of which was 1.0.
(§3) Substrate compounds for aminopeptidase enzyme having various color developing groups derived from β-naphthylamine were dissolved in 0.1M Tris-HCl buffer (pH 7.0) at the concentration of 0.2 mM to obtain substrate solutions.
(§4) To the substrate solution (1.5 ml) was added the above cell suspension (0.3 ml) and reacted at 37° C. for 60 minutes. After completion of the reaction, a coloring reagent [prepared by dissolving diazonium salt of Garnet GBC in 1M acetate buffer (containing 10% Tween 20, pH: 4.2) at the concentration of 0.5 mg/ml] was added and, after 15 minutes, the absorption at 525 nm was determined with a spectrophotometer.
(§5) On the basis of the average amount of released β-naphthylamine in each strain, the hydrolytic activity was expressed as follows: […]

[2] = tested on: Treponema denticola; assay: as above; type: cell-based; conditions: four strains, substrate 0.2 mM, pH 7.0, 37° C., 60 minutes, Table 1
Procedure: as §1, §2, §3, §4, §5

[3] = tested on: Fusobacterium nucleatum; assay: as above; type: cell-based; conditions: three strains, substrate 0.2 mM, pH 7.0, 37° C., 60 minutes, Table 1
Procedure: as §1, §2, §3, §4, §5

[4] = tested on: Capnocytophaga sp.; assay: as above; type: cell-based; conditions: four strains, substrate 0.2 mM, pH 7.0, 37° C., 60 minutes, Table 1
Procedure: as §1, §2, §3, §4, §5

[5] = tested on: Actinobacillus actinomycetemcomitans; assay: as above; type: cell-based; conditions: four strains, substrate 0.2 mM, pH 7.0, 37° C., 60 minutes, Table 1
Procedure: as §1, §2, §3, §4, §5

[6] = tested on: B. intermedius; assay: Hydrolytic activity of cell suspension on aminopeptidase substrates (Experiment 2); type: cell-based; conditions: three strains, Table 2
Procedure: as §2, §3, §4, §5
(§6) According to the same manner as described in Experiment 1, periodontopathic bacteria specific aminopeptidase activity was tested by using four strains of Treponema denticola, five strains of B. gingivalis, three strains of B. intermedius, two strains of B. melaninogenicus, two strains of Actinomyces israelli, four strains of Actinobacillus actinomycetemcomitans and three strains of Fusobacterium nucleatum. Abbreviations used in Table 2 mean the following substrate compounds.

[7] = tested on: Treponema denticola; assay: as above; type: cell-based; conditions: four strains, Table 2
Procedure: as §2, §3, §4, §5, §6

[8] = tested on: Fusobacterium nucleatum; assay: as above; type: cell-based; conditions: three strains, Table 2
Procedure: as §2, §3, §4, §5, §6

[9] = tested on: B. melaninogenicus; assay: as above; type: cell-based; conditions: two strains, Table 2
Procedure: as §2, §3, §4, §5, §6

[10] = tested on: B. gingivalis; assay: as above; type: cell-based; conditions: five strains, Table 2
Procedure: as §2, §3, §4, §5, §6

[11] = tested on: Actinobacillus actinomycetemcomitans; assay: as above; type: cell-based; conditions: four strains, Table 2
Procedure: as §2, §3, §4, §5, §6

[12] = tested on: B. corporis; assay: as above; type: cell-based; conditions: Table 2
Procedure: as §2, §3, §4, §5, §6

[13] = tested on: B. denticola; assay: as above; type: cell-based; conditions: Table 2
Procedure: as §2, §3, §4, §5, §6

[14] = tested on: Actinomyces israelli; assay: as above; type: cell-based; conditions: two strains, Table 2
Procedure: as §2, §3, §4, §5, §6

[15] = tested on: periodontopathic bacteria specific aminopeptidase activity; assay: Hydrolytic activity of gingival crevicular fluid specimens, visually evaluated (Experiment 5); type: biochemical; set-up: key: -: orange; +: dark orange; ++: brown; +++: dark brown
Procedure: as §3, §4
Specimens of gingival crevicular fluid were collected with paper points from five subjects who were considered to be healthy from their clinical state, six subjects with gingivitis and six subjects with periodontitis. Each specimen was dispersed in Ringer's solution (1.5 ml), and the relative amount of spirochete to total bacteria: [formula] was determined with a phase contrast microscope. Further, the Ringer's solution (0.3 ml) was tested for hydrolytic activity using the substrate solution prepared in the same manner as described in Experiment 1. As substrates, there were used compounds of the formula [1], i.e., N-benzoylvalyl-glycyl-arginine-β-naphthylamide (BzVGR) and N-carbobenzoxy-valyl-glycyl-arginine-β-naphthylamide (CxVGR) were used.
In table 4, hydrolytic activity was visually evaluated and expressed as follows: […]
According to the same manner as described in Experiment 4, hydrolytic activity was tested by using the compounds of the formula [2], i.e., lysyl-proline-β-naphthylamide (KP) and N-carbobenzoxy-prolyl-alanyl-glycylproline-β-naphthylamide (CxPAGP) as the substrates.

Row | Compound | hydrolytic activity (average amount of released β-naphthylamine) [1] | hydrolytic activity (average amount of released β-naphthylamine) [2] | hydrolytic activity (average amount of released β-naphthylamine) [3] | hydrolytic activity (average amount of released β-naphthylamine) [4] | hydrolytic activity (average amount of released β-naphthylamine) [5] | hydrolytic activity (average amount of released β-naphthylamine) [6] | hydrolytic activity (average amount of released β-naphthylamine) [7] | hydrolytic activity (average amount of released β-naphthylamine) [8] | hydrolytic activity (average amount of released β-naphthylamine) [9] | hydrolytic activity (average amount of released β-naphthylamine) [10] | hydrolytic activity (average amount of released β-naphthylamine) [11] | hydrolytic activity (average amount of released β-naphthylamine) [12] | hydrolytic activity (average amount of released β-naphthylamine) [13] | hydrolytic activity (average amount of released β-naphthylamine) [14] | further results
1 | NCCCC[C@H](N)C(=O)Nc1ccc2ccccc2c1 [K, lysine-β-naphthylamide, reference compound] | - (release amount<5 nmol/ml) | - (release amount<5 nmol/ml) | - (release amount<5 nmol/ml) | +++ (release amount≥40 nmol/ml) | - (release amount<5 nmol/ml) | - (release amount<5 nmol/ml) | - (release amount<5 nmol/ml) | - (release amount<5 nmol/ml) | - (release amount<5 nmol/ml) | - (release amount<5 nmol/ml) | - (release amount<5 nmol/ml) | - (release amount<5 nmol/ml) | - (release amount<5 nmol/ml) | - (release amount<5 nmol/ml) | 
2 | N=C(N)NCCC[C@H](N)C(=O)Nc1ccc2ccccc2c1 [R, arginine-β-naphthylamide, reference compound] | - (release amount<5 nmol/ml) | - (release amount<5 nmol/ml) | - (release amount<5 nmol/ml) | +++ (release amount≥40 nmol/ml) | - (release amount<5 nmol/ml) | - (release amount<5 nmol/ml) | - (release amount<5 nmol/ml) | - (release amount<5 nmol/ml) | - (release amount<5 nmol/ml) | - (release amount<5 nmol/ml) | - (release amount<5 nmol/ml) | - (release amount<5 nmol/ml) | - (release amount<5 nmol/ml) | - (release amount<5 nmol/ml) | 
3 | C[C@H](N)C(=O)Nc1ccc2ccccc2c1 [A, alanine-β-naphthylamide, reference compound] | - (release amount<5 nmol/ml) | - (release amount<5 nmol/ml) | - (release amount<5 nmol/ml) | +++ (release amount≥40 nmol/ml) | - (release amount<5 nmol/ml) | - (release amount<5 nmol/ml) | - (release amount<5 nmol/ml) | - (release amount<5 nmol/ml) | - (release amount<5 nmol/ml) | - (release amount<5 nmol/ml) | - (release amount<5 nmol/ml) | - (release amount<5 nmol/ml) | - (release amount<5 nmol/ml) | - (release amount<5 nmol/ml) | 
4 | NCC(=O)Nc1ccc2ccccc2c1 [G, glycine-β-naphthylamide, reference compound] | - (release amount<5 nmol/ml) | - (release amount<5 nmol/ml) | - (release amount<5 nmol/ml) | + (10 ≤release amount<20 nmol/ml) | - (release amount<5 nmol/ml) | - (release amount<5 nmol/ml) | - (release amount<5 nmol/ml) | - (release amount<5 nmol/ml) | - (release amount<5 nmol/ml) | - (release amount<5 nmol/ml) | - (release amount<5 nmol/ml) | - (release amount<5 nmol/ml) | - (release amount<5 nmol/ml) | - (release amount<5 nmol/ml) | 
5 | C[C@H](NC(=O)[C@@H]1CCCN1C(=O)OCc1ccccc1)C(=O)NCC(=O)N1CCC[C@H]1C(=O)Nc1ccc2ccccc2c1 [CxPAGP, N-carbobenzoxy-prolyl-alanyl-glycyl-proline-β-naphthylamide] (Cbz-PAGP-βNA) |  |  |  |  |  | +++ (release amount≥40 nmol/ml) | +++ (release amount≥40 nmol/ml) | - (release amount<5 nmol/ml) | +++ (release amount≥40 nmol/ml) | + (10 ≤release amount<20 nmol/ml) | - (release amount<5 nmol/ml) | ++ (20 ≤release amount<40 nmol/ml) | +++ (release amount≥40 nmol/ml) | - (release amount<5 nmol/ml) | hydrolytic activity, visually evaluated ([15]; Gingivitis subject 1 (spirochete 7.3 %)): +; hydrolytic activity, visually evaluated ([15]; Gingivitis subject 2 (spirochete 16.7 %)): +; hydrolytic activity, visually evaluated ([15]; Gingivitis subject 3 (spirochete 20.5 %)): ++; hydrolytic activity, visually evaluated ([15]; Gingivitis subject 4 (spirochete 6.8 %)): -; hydrolytic activity, visually evaluated ([15]; Gingivitis subject 5 (spirochete 7.3 %)): -; hydrolytic activity, visually evaluated ([15]; Gingivitis subject 6 (spirochete 14.4 %)): +; hydrolytic activity, visually evaluated ([15]; Healthy subject 1 (spirochete 0.1 %)): -; hydrolytic activity, visually evaluated ([15]; Healthy subject 2 (spirochete 2.5 %)): +; hydrolytic activity, visually evaluated ([15]; Healthy subject 3 (spirochete 1.1 %)): -; hydrolytic activity, visually evaluated ([15]; Healthy subject 4 (spirochete 0.6 %)): -; hydrolytic activity, visually evaluated ([15]; Healthy subject 5 (spirochete 1.3 %)): -; hydrolytic activity, visually evaluated ([15]; Periodontitis subject 1 (spirochete 45.2 %)): +++; hydrolytic activity, visually evaluated ([15]; Periodontitis subject 2 (spirochete 30.3 %)): +++; hydrolytic activity, visually evaluated ([15]; Periodontitis subject 3 (spirochete 34.6 %)): +++; hydrolytic activity, visually evaluated ([15]; Periodontitis subject 4 (spirochete 21.2 %)): +++; hydrolytic activity, visually evaluated ([15]; Periodontitis subject 5 (spirochete 40.3 %)): +++; hydrolytic activity, visually evaluated ([15]; Periodontitis subject 6 (spirochete 35.1 %)): +++

— patent publication US5137811A, “Method for diagnosing periodontal diseases with a substrate specific for aminopeptidase activity of periodontopathic bacteria” (Sunstar Kabushiki Kaisha, priority 1986, dated 1992)
